Test results as given in patent US4257941A, “Polycyclic nitrogen-containing compounds” (BASF Aktiengesellschaft, priority 1976, dated 1981).

How the values were obtained:
wheat = assay: Growth height of wheat, greenhouse (Example 7); format: in vivo, wheat (Opal variety); conditions: for Plant height relative: control 100
From the text: (§1) In the greenhouse, the four cereals wheat ("Opal" variety), rye ("Petkuser"), barley ("Villa") and oats ("Flamingskrone") were sown in plastic dishes 11.5 cm in diameter in a sandy loam adequately supplied with nutrients. The active ingredients were applied at various rates to the soil and to the leaves. When applied to the soil, the active ingredient were sprayed onto the surface of the soil on the day of sowing; in the case of leaf treatment, the leaves were sprayed in the usual manner at a growth height of the plants of 10 cm. During the 18 day growth period, the treated plants grew much more slowly than the untreated control, a fact later confirmed by measurements of the stem length. Measurements were taken of 100 plants from each series.
(§2) The prior art agent used for comparison purposes was N-2-chloroethyl-N,N,N-trimethylammonium chloride (CCC; German Printed Application DAS No. 1,294,734).

rye = assay: Growth height of rye, greenhouse (Example 8); format: in vivo, rye (Petkuser); conditions: soil; for Plant height relative: control 100
From the text: as §1, §2

lawns = assay: Long-term action on lawns (Example 14); format: in vivo; conditions: for First cutting, green weight relative / First cutting, growth height relative / Second cutting, green weight relative / Second cutting, growth height relative / Third cutting, green weight relative: control 100

Clc1ccc(N2N=NC3C4CC(C5N=NC45)C32)cc1 (centres unmarked) [drawing 346]
Plant height (wheat; leaf, 0.125 kg/ha): 24.0 cm
Plant height relative (wheat; leaf, 0.125 kg/ha): 80.0
Plant height (wheat; leaf, 0.5 kg/ha): 22.0 cm
Plant height relative (wheat; leaf, 0.5 kg/ha): 73.3
Plant height (wheat; leaf, 1.0 kg/ha): 20.0 cm
Plant height relative (wheat; leaf, 1.0 kg/ha): 66.6
Plant height (wheat; leaf, 2.0 kg/ha): 19.0 cm
Plant height relative (wheat; leaf, 2.0 kg/ha): 63.3
Plant height (wheat; leaf, 4.0 kg/ha): 17.5 cm
Plant height relative (wheat; leaf, 4.0 kg/ha): 58.3

Brc1ccc(N2N=NC3C4CC(C5N=NC45)C32)cc1 (centres unmarked) [drawing 349]
Plant height (rye; 0.5 kg/ha): 23.0 cm
Plant height relative (rye; 0.5 kg/ha): 79.3
Plant height (rye; 1.0 kg/ha): 22.5 cm
Plant height relative (rye; 1.0 kg/ha): 77.6
Plant height (rye; 2.0 kg/ha): 19.0 cm
Plant height relative (rye; 2.0 kg/ha): 65.5
Plant height (rye; 6.0 kg/ha): 9.0 cm
Plant height relative (rye; 6.0 kg/ha): 31.0

Clc1ccc(N2N=NC3C4CC(C5N=NC45)C32)cc1 (centres unmarked) [drawing 344]
Plant height (wheat; soil, 0.5 kg/ha): 28.5 cm
Plant height relative (wheat; soil, 0.5 kg/ha): 91.9
Plant height (wheat; soil, 1.0 kg/ha): 23.0 cm
Plant height relative (wheat; soil, 1.0 kg/ha): 74.2
Plant height (wheat; soil, 2.0 kg/ha): 20.5 cm
Plant height relative (wheat; soil, 2.0 kg/ha): 66.1
Plant height (wheat; soil, 6.0 kg/ha): 10.5 cm
Plant height relative (wheat; soil, 6.0 kg/ha): 33.9

Brc1ccc(N2N=NC3C4CC(C5N=NC45)C32)cc1 (centres unmarked) [drawing 345]
Plant height (wheat; soil, 0.5 kg/ha): 27.5 cm
Plant height relative (wheat; soil, 0.5 kg/ha): 88.7
Plant height (wheat; soil, 1.0 kg/ha): 22.5 cm
Plant height relative (wheat; soil, 1.0 kg/ha): 72.6
Plant height (wheat; soil, 2.0 kg/ha): 15.5 cm
Plant height relative (wheat; soil, 2.0 kg/ha): 50.0
Plant height (wheat; soil, 6.0 kg/ha): 11.5 cm
Plant height relative (wheat; soil, 6.0 kg/ha): 31.7

Brc1ccc(N2N=NC3C4CC(C5N=NC45)C32)cc1 (centres unmarked) [drawing 347]
Plant height (wheat; leaf, 0.125 kg/ha): 25.0 cm
Plant height relative (wheat; leaf, 0.125 kg/ha): 83.3
Plant height (wheat; leaf, 0.5 kg/ha): 23.5 cm
Plant height relative (wheat; leaf, 0.5 kg/ha): 78.3
Plant height (wheat; leaf, 1.0 kg/ha): 21.0 cm
Plant height relative (wheat; leaf, 1.0 kg/ha): 70.0
Plant height (wheat; leaf, 2.0 kg/ha): 21.5 cm
Plant height relative (wheat; leaf, 2.0 kg/ha): 71.7
Plant height (wheat; leaf, 4.0 kg/ha): 20.0 cm
Plant height relative (wheat; leaf, 4.0 kg/ha): 66.7

Fc1ccc(N2N=NC3C4CC(C5N=NC45)C32)cc1 (centres unmarked)
First cutting, green weight (lawns; 0.5 kg/ha): 23.1 g
First cutting, growth height (lawns; 0.5 kg/ha): 15.0 cm
Second cutting, green weight (lawns; 0.5 kg/ha): 21.8 g
Second cutting, growth height (lawns; 0.5 kg/ha): 10.0 cm
Third cutting, green weight (lawns; 0.5 kg/ha): 14.6 g
First cutting, green weight relative (lawns; 0.5 kg/ha): 65.4
First cutting, growth height relative (lawns; 0.5 kg/ha): 83.3
Second cutting, green weight relative (lawns; 0.5 kg/ha): 81.6
Second cutting, growth height relative (lawns; 0.5 kg/ha): 68.0
Third cutting, green weight relative (lawns; 0.5 kg/ha): 96.1
First cutting, green weight (lawns; 1.0 kg/ha): 20.5 g
First cutting, growth height (lawns; 1.0 kg/ha): 12.5 cm
Second cutting, green weight (lawns; 1.0 kg/ha): 21.4 g
Second cutting, growth height (lawns; 1.0 kg/ha): 9.0 cm
Third cutting, green weight (lawns; 1.0 kg/ha): 13.5 g
First cutting, green weight relative (lawns; 1.0 kg/ha): 58.1
First cutting, growth height relative (lawns; 1.0 kg/ha): 69.5
Second cutting, green weight relative (lawns; 1.0 kg/ha): 80.1
Second cutting, growth height relative (lawns; 1.0 kg/ha): 61.2
Third cutting, green weight relative (lawns; 1.0 kg/ha): 88.8
First cutting, green weight (lawns; 2.0 kg/ha): 9.8 g
First cutting, growth height (lawns; 2.0 kg/ha): 7.5 cm
Second cutting, green weight (lawns; 2.0 kg/ha): 10.1 g
Second cutting, growth height (lawns; 2.0 kg/ha): 5.0 cm
Third cutting, green weight (lawns; 2.0 kg/ha): 9.5 g
First cutting, green weight relative (lawns; 2.0 kg/ha): 27.8
First cutting, growth height relative (lawns; 2.0 kg/ha): 41.7
Second cutting, green weight relative (lawns; 2.0 kg/ha): 37.8
Second cutting, growth height relative (lawns; 2.0 kg/ha): 34.0
Third cutting, green weight relative (lawns; 2.0 kg/ha): 62.5
First cutting, green weight (lawns; 4.0 kg/ha): 7.9 g
First cutting, growth height (lawns; 4.0 kg/ha): 6.5 cm
Second cutting, green weight (lawns; 4.0 kg/ha): 7.1 g
Second cutting, growth height (lawns; 4.0 kg/ha): 2.0 cm
Third cutting, green weight (lawns; 4.0 kg/ha): 7.9 g
First cutting, green weight relative (lawns; 4.0 kg/ha): 22.4
First cutting, growth height relative (lawns; 4.0 kg/ha): 36.1
Second cutting, green weight relative (lawns; 4.0 kg/ha): 26.6
Second cutting, growth height relative (lawns; 4.0 kg/ha): 13.6
Third cutting, green weight relative (lawns; 4.0 kg/ha): 52.0

Cc1ccccc1N1N=NC2C3CC(C4N=NC34)C21 (centres unmarked)
First cutting, green weight (lawns; 0.5 kg/ha): 26.8 g
First cutting, growth height (lawns; 0.5 kg/ha): 14.0 cm
Second cutting, green weight (lawns; 0.5 kg/ha): 23.5 g
Second cutting, growth height (lawns; 0.5 kg/ha): 13.0 cm
Third cutting, green weight (lawns; 0.5 kg/ha): 16.5 g
First cutting, green weight relative (lawns; 0.5 kg/ha): 75.9
First cutting, growth height relative (lawns; 0.5 kg/ha): 77.8
Second cutting, green weight relative (lawns; 0.5 kg/ha): 88.0
Second cutting, growth height relative (lawns; 0.5 kg/ha): 88.4
Third cutting, green weight relative (lawns; 0.5 kg/ha): 108.6
First cutting, green weight (lawns; 1.0 kg/ha): 25.5 g
First cutting, growth height (lawns; 1.0 kg/ha): 14.0 cm
Second cutting, green weight (lawns; 1.0 kg/ha): 22.0 g
Second cutting, growth height (lawns; 1.0 kg/ha): 12.5 cm
Third cutting, green weight (lawns; 1.0 kg/ha): 16.3 g
First cutting, green weight relative (lawns; 1.0 kg/ha): 72.2
First cutting, growth height relative (lawns; 1.0 kg/ha): 77.8
Second cutting, green weight relative (lawns; 1.0 kg/ha): 82.4
Second cutting, growth height relative (lawns; 1.0 kg/ha): 85.0
Third cutting, green weight relative (lawns; 1.0 kg/ha): 107.2
First cutting, green weight (lawns; 2.0 kg/ha): 20.0 g
First cutting, growth height (lawns; 2.0 kg/ha): 12.5 cm
Second cutting, green weight (lawns; 2.0 kg/ha): 21.4 g
Second cutting, growth height (lawns; 2.0 kg/ha): 22.0 cm
Third cutting, green weight (lawns; 2.0 kg/ha): 15.7 g
First cutting, green weight relative (lawns; 2.0 kg/ha): 56.7
First cutting, growth height relative (lawns; 2.0 kg/ha): 69.5
Second cutting, green weight relative (lawns; 2.0 kg/ha): 80.1
Second cutting, growth height relative (lawns; 2.0 kg/ha): 74.8
Third cutting, green weight relative (lawns; 2.0 kg/ha): 103.3
First cutting, green weight (lawns; 4.0 kg/ha): 13.2 g
First cutting, growth height (lawns; 4.0 kg/ha): 9.5 cm
Second cutting, green weight (lawns; 4.0 kg/ha): 15.3 g
Second cutting, growth height (lawns; 4.0 kg/ha): 7.5 cm
Third cutting, green weight (lawns; 4.0 kg/ha): 13.9 g
First cutting, green weight relative (lawns; 4.0 kg/ha): 37.4
First cutting, growth height relative (lawns; 4.0 kg/ha): 52.8
Second cutting, green weight relative (lawns; 4.0 kg/ha): 57.3
Second cutting, growth height relative (lawns; 4.0 kg/ha): 51.0
Third cutting, green weight relative (lawns; 4.0 kg/ha): 91.4

Clc1ccc(N2N=NC3C4CC(C5NNC45)C32)cc1 (centres unmarked) [drawing 381]
First cutting, green weight (lawns; 0.5 kg/ha): 28.8 g
First cutting, growth height (lawns; 0.5 kg/ha): 16.5 cm
Second cutting, green weight (lawns; 0.5 kg/ha): 27.2 g
Second cutting, growth height (lawns; 0.5 kg/ha): 12.5 cm
Third cutting, green weight (lawns; 0.5 kg/ha): 17.2 g
First cutting, green weight relative (lawns; 0.5 kg/ha): 81.6
First cutting, growth height relative (lawns; 0.5 kg/ha): 91.7
Second cutting, green weight relative (lawns; 0.5 kg/ha): 101.9
Second cutting, growth height relative (lawns; 0.5 kg/ha): 85.0
Third cutting, green weight relative (lawns; 0.5 kg/ha): 113.2
First cutting, green weight (lawns; 1.0 kg/ha): 21.3 g
First cutting, growth height (lawns; 1.0 kg/ha): 13.5 cm
Second cutting, green weight (lawns; 1.0 kg/ha): 20.5 g
Second cutting, growth height (lawns; 1.0 kg/ha): 9.0 cm
Third cutting, green weight (lawns; 1.0 kg/ha): 15.1 g
First cutting, green weight relative (lawns; 1.0 kg/ha): 60.3
First cutting, growth height relative (lawns; 1.0 kg/ha): 75.0
Second cutting, green weight relative (lawns; 1.0 kg/ha): 76.8
Second cutting, growth height relative (lawns; 1.0 kg/ha): 61.2
Third cutting, green weight relative (lawns; 1.0 kg/ha): 99.3
First cutting, green weight (lawns; 2.0 kg/ha): 17.2 g
First cutting, growth height (lawns; 2.0 kg/ha): 11.5 cm
Second cutting, green weight (lawns; 2.0 kg/ha): 16.2 g
Second cutting, growth height (lawns; 2.0 kg/ha): 7.5 cm
Third cutting, green weight (lawns; 2.0 kg/ha): 12.5 g
First cutting, green weight relative (lawns; 2.0 kg/ha): 48.7
First cutting, growth height relative (lawns; 2.0 kg/ha): 63.9
Second cutting, green weight relative (lawns; 2.0 kg/ha): 60.7
Second cutting, growth height relative (lawns; 2.0 kg/ha): 51.0
Third cutting, green weight relative (lawns; 2.0 kg/ha): 82.2
First cutting, green weight (lawns; 4.0 kg/ha): 13.9 g
First cutting, growth height (lawns; 4.0 kg/ha): 9.0 cm
Second cutting, green weight (lawns; 4.0 kg/ha): 10.2 g
Second cutting, growth height (lawns; 4.0 kg/ha): 5.0 cm
Third cutting, green weight (lawns; 4.0 kg/ha): 9.8 g
First cutting, green weight relative (lawns; 4.0 kg/ha): 39.4
First cutting, growth height relative (lawns; 4.0 kg/ha): 50.0
Second cutting, green weight relative (lawns; 4.0 kg/ha): 38.2
Second cutting, growth height relative (lawns; 4.0 kg/ha): 34.0
Third cutting, green weight relative (lawns; 4.0 kg/ha): 64.5
